Conditions: ambient conditions; for time to change in color (self-oxidation of catechol moieties): aqueous solution
Text: Dopamine (Dopa), a naturally derived neurotransmitter molecule^[4], also resembles with the key moiety in mussel foot proteins (catechol)^[11] and has been intensely utilized to develop adhesive biomaterials with diverse clinical importance^[12]. In view of the biological relevance of multifunctional catecholic moieties, herein, Dopa skeleton was chemically modified with a nitro-group to modulate the electronic properties of the aromatic ring^[13] (FIG. 1a). To use the nitro incorporated dopamine (nDopa) moiety for designing functional biomaterials, it was further covalently conjugated with a methacrylate group through an amide linkage (FIG. 1a).

time to change in color (self-oxidation of catechol moieties) [h]	time without self-oxidation [days]	SMILES
1		NCCc1ccc(O)c(O)c1 [Dopa, dopamine]
24		C=C(C)C(=O)NCCc1ccc(O)c(O)c1 [MAD, methacrylated dopamine]
	> 7	C=C(C)C(=O)NCCc1cc(O)c(O)cc1[N+](=O)[O-] [nMAD, methacrylated nitro-dopamine]
